Earlier results in US8426341B2, “Herbicide formulation” (priority 2005, dated 2013).

Conditions: acid form / neutral form equilibrium; exemplary values

Row | Compound | pKas (single or first listed value)
1 | O=C(O)CCCOc1ccc(Cl)cc1Cl [2,4-DB] | 4.8
2 | O=C(O)c1cc(Oc2ccc(C(F)(F)F)cc2Cl)ccc1[N+](=O)[O-] [Acifluorfen] | 3.86
3 | CC(C)N1C(=O)c2ccccc2NS1(=O)=O [Bentazon] | 3.30
4 | N#Cc1cc(Br)c(O)c(Br)c1 [Bromoxynil] | 4.06
5 | COc1c(Cl)ccc(Cl)c1C(=O)O [Dicamba, 3,6-dichloro-O-anisic acid] | 1.87
6 | CC(Oc1ccc(Oc2ccc(Cl)cc2Cl)cc1)C(=O)O (centres unmarked) [Diclofop] | 3.57
7 | C[C@@H](Oc1ccc(Oc2ccc(C(F)(F)F)cn2)cc1)C(=O)O [Fluazifop-p] | 2.98
8 | CP(=O)(O)CCC(N)C(=O)O (centres unmarked) [Glufosinate] | 2
9 | CC(Oc1ccc(Oc2ncc(C(F)(F)F)cc2Cl)cc1)C(=O)O (centres unmarked) [Haloxyfop] | 2.9
10 | CC(C)C1(C)N=C(c2nc3ccccc3cc2C(=O)O)NC1=O (centres unmarked) [Imazaquin] | 3.8
11 | Nc1c(Cl)c(Cl)nc(C(=O)O)c1Cl [Picloram] | 2.3
12 | O=C(O)c1c(Cl)ccc2cc(Cl)cnc12 [Quinclorac] | 4.34
13 | C[C@@H](Oc1ccc(Oc2cnc3cc(Cl)ccc3n2)cc1)C(=O)O [Quizalofop-p] | 1.25
14 | O=C(O)COc1nc(Cl)c(Cl)cc1Cl [Triclopyr, 3,5,6-trichloro-2-pyridyloxyacetic acid] | 2.68
15 | Imazamethbenz | 2.9

Same assay, conditions: second value for compounds with more than one acidic hydrogen

Row | Compound | pKas (second listed value)
16 | CP(=O)(O)CCC(N)C(=O)O (centres unmarked) [Glufosinate] | 2.9
17 | O=C(O)COc1nc(Cl)c(Cl)cc1Cl [Triclopyr, 3,5,6-trichloro-2-pyridyloxyacetic acid] | 3.97
